± gives the expanded uncertainty stated by the source.
Key:
[1] = Crystal
[2] = Molar enthalpy of transition or fusion; settings: Crystal
[3] = molar heat capacity at constant pressure; settings: 101.33 kPa

CCCCCCCCCCCCCCCCCC(=O)OC [methyl octadecanoate]
Settings | Molar enthalpy of transition or fusion [kcal/mol] | Triple point temperature [K]
[1] | – | 311.84 ± 0.16
[2] | 15.86 ± 0.129 | –

[3]
Settings | molar heat capacity at constant pressure [J/K/mol]
5 K, Crystal | 0.82 ± 0.04
10 K, Crystal | 5.96 ± 0.12
20 K, Crystal | 26.2 ± 0.32
30 K, Crystal | 52.72 ± 0.3
40 K, Crystal | 82.6 ± 0.41
50 K, Crystal | 112.11 ± 0.53
60 K, Crystal | 137.8 ± 0.63
70 K, Crystal | 162.71 ± 0.73
80 K, Crystal | 182.89 ± 0.81
90 K, Crystal | 201.46 ± 0.8
100 K, Crystal | 217.35 ± 0.84
110 K, Crystal | 234.15 ± 0.87
120 K, Crystal | 248.17 ± 0.9
130 K, Crystal | 261.72 ± 0.92
140 K, Crystal | 274.54 ± 0.95
150 K, Crystal | 286.99 ± 0.97
160 K, Crystal | 299.33 ± 1
170 K, Crystal | 312.93 ± 1
180 K, Crystal | 327.18 ± 1.1
190 K, Crystal | 341.65 ± 1.1
200 K, Crystal | 354.7 ± 1.1
210 K, Crystal | 368.18 ± 1.1
220 K, Crystal | 382.77 ± 1.2
230 K, Crystal | 397.82 ± 1.2
240 K, Crystal | 413.11 ± 1.2
250 K, Crystal | 428.51 ± 1.3
260 K, Crystal | 446.92 ± 1.3
270 K, Crystal | 468.64 ± 1.3
280 K, Crystal | 497.34 ± 1.4
290 K, Crystal | 541.05 ± 1.5
320 K, Liquid | 639 ± 1.7
330 K, Liquid | 646.44 ± 1.7
340 K, Liquid | 655.14 ± 1.7
350 K, Liquid | 664.03 ± 1.7

CCCCCCCC(=O)OC [methyl octanoate]
Settings | Triple point temperature [K]
[1] | 236.2 ± 0.2

Settings | Molar enthalpy of transition or fusion [kcal/mol]
[2], Adiabatic calorimetry | 6.13 ± 0.122

[3]
Settings | molar heat capacity at constant pressure [J/K/mol]
5 K, Crystal | 0.38 ± 0.03
10 K, Crystal | 3.03 ± 0.07
20 K, Crystal | 18.19 ± 0.23
30 K, Crystal | 33.71 ± 0.22
40 K, Crystal | 50.53 ± 0.28
50 K, Crystal | 66.36 ± 0.35
60 K, Crystal | 79.75 ± 0.4
70 K, Crystal | 92.33 ± 0.45
80 K, Crystal | 103.39 ± 0.49
90 K, Crystal | 113.4 ± 0.63
100 K, Crystal | 122.25 ± 0.64
110 K, Crystal | 131.1 ± 0.66
120 K, Crystal | 138.74 ± 0.68
130 K, Crystal | 146.18 ± 0.69
140 K, Crystal | 153.44 ± 0.71
150 K, Crystal | 160.31 ± 0.72
160 K, Crystal | 167.13 ± 0.73
170 K, Crystal | 174.18 ± 0.75
180 K, Crystal | 181.34 ± 0.76
190 K, Crystal | 188.84 ± 0.78
200 K, Crystal | 196.94 ± 0.79
210 K, Crystal | 205.99 ± 0.81
220 K, Crystal | 217.68 ± 0.84
230 K, Crystal | 242.75 ± 0.89
240 K, Liquid | 301.67 ± 1
250 K, Liquid | 301.39 ± 1
260 K, Liquid | 303.17 ± 1
270 K, Liquid | 305.83 ± 1
280 K, Liquid | 308.83 ± 1
290 K, Liquid | 312.81 ± 1
300 K, Liquid | 316.17 ± 1
310 K, Liquid | 320.13 ± 1
320 K, Liquid | 323.19 ± 1.1
330 K, Liquid | 327.93 ± 1.1
340 K, Liquid | 332.21 ± 1.1
350 K, Liquid | 336.19 ± 1.1

CCCCCCCCCCCCCCC(=O)OC [methyl pentadecanoate]
Settings | Molar enthalpy of transition or fusion [kcal/mol] | Triple point temperature [K]
[1] | – | 292.35 ± 0.16
[2] | 12.97 ± 0.124 | –

[3]
Settings | molar heat capacity at constant pressure [J/K/mol]
5 K, Crystal | 0.5 ± 0.03
10 K, Crystal | 4.15 ± 0.09
20 K, Crystal | 21.13 ± 0.26
30 K, Crystal | 43.92 ± 0.26
40 K, Crystal | 71.36 ± 0.37
50 K, Crystal | 97.58 ± 0.47
60 K, Crystal | 120.37 ± 0.56
70 K, Crystal | 141.42 ± 0.65
80 K, Crystal | 159.35 ± 0.72
90 K, Crystal | 175.8 ± 0.75
100 K, Crystal | 190.15 ± 0.78
110 K, Crystal | 203.86 ± 0.81
120 K, Crystal | 216.45 ± 0.83
130 K, Crystal | 228.03 ± 0.86
140 K, Crystal | 239.15 ± 0.88
150 K, Crystal | 249.97 ± 0.9
160 K, Crystal | 260.57 ± 0.92
170 K, Crystal | 272.29 ± 0.94
180 K, Crystal | 282.1 ± 0.96
190 K, Crystal | 293.1 ± 0.99
200 K, Crystal | 304.43 ± 1
210 K, Crystal | 316.28 ± 1
220 K, Crystal | 328.72 ± 1.1
230 K, Crystal | 341.8 ± 1.1
240 K, Crystal | 355.9 ± 1.1
250 K, Crystal | 371.28 ± 1.1
260 K, Crystal | 387.35 ± 1.2
270 K, Crystal | 403.92 ± 1.2
280 K, Crystal | 432.13 ± 1.3
300 K, Liquid | 524.33 ± 1.4
310 K, Liquid | 534.12 ± 1.5
320 K, Liquid | 539.26 ± 1.5
330 K, Liquid | 544.8 ± 1.5
340 K, Liquid | 551.15 ± 1.5

CCCCCCCCCCCCCC(=O)OC [methyl tetradecanoate]
Settings | Molar enthalpy of transition or fusion [kcal/mol] | Triple point temperature [K]
[1] | – | 292.14 ± 0.16
[2] | 12.43 ± 0.124 | –

[3]
Settings | molar heat capacity at constant pressure [J/K/mol]
5 K, Crystal | 0.55 ± 0.03
10 K, Crystal | 4.56 ± 0.1
20 K, Crystal | 21.34 ± 0.26
30 K, Crystal | 43.99 ± 0.26
40 K, Crystal | 69.2 ± 0.36
50 K, Crystal | 93.62 ± 0.46
60 K, Crystal | 113.9 ± 0.54
70 K, Crystal | 133.41 ± 0.61
80 K, Crystal | 150.35 ± 0.68
90 K, Crystal | 165.54 ± 0.73
100 K, Crystal | 179.38 ± 0.76
110 K, Crystal | 192.06 ± 0.78
120 K, Crystal | 203.55 ± 0.81
130 K, Crystal | 214.52 ± 0.83
140 K, Crystal | 224.93 ± 0.85
150 K, Crystal | 235.23 ± 0.87
160 K, Crystal | 244.79 ± 0.89
170 K, Crystal | 254.91 ± 0.91
180 K, Crystal | 265.19 ± 0.93
190 K, Crystal | 275.63 ± 0.95
200 K, Crystal | 286.07 ± 0.97
210 K, Crystal | 296.67 ± 0.99
220 K, Crystal | 308.85 ± 1
230 K, Crystal | 321.05 ± 1
240 K, Crystal | 334.49 ± 1.1
250 K, Crystal | 349.48 ± 1.1
260 K, Crystal | 368.64 ± 1.1
270 K, Crystal | 388.14 ± 1.2
280 K, Crystal | 429.3 ± 1.3
300 K, Liquid | 500.03 ± 1.4
310 K, Liquid | 504.66 ± 1.4
320 K, Liquid | 510 ± 1.4
330 K, Liquid | 515.86 ± 1.4
340 K, Liquid | 522.03 ± 1.4
350 K, Liquid | 528.04 ± 1.5

CCCCCCCCCCCCC(=O)OC [methyl tridecanoate]
Settings | Molar enthalpy of transition or fusion [kcal/mol] | Triple point temperature [K]
[1] | – | 279.07 ± 0.16
[2] | 10.9 ± 0.124 | –

[3]
Settings | molar heat capacity at constant pressure [J/K/mol]
5 K, Crystal | 0.53 ± 0.03
10 K, Crystal | 4.03 ± 0.09
20 K, Crystal | 19.77 ± 0.24
30 K, Crystal | 41.39 ± 0.25
40 K, Crystal | 65.69 ± 0.35
50 K, Crystal | 89.16 ± 0.44
60 K, Crystal | 108.8 ± 0.52
70 K, Crystal | 127.88 ± 0.59
80 K, Crystal | 144.45 ± 0.66
90 K, Crystal | 158.95 ± 0.72
100 K, Crystal | 171.63 ± 0.74
110 K, Crystal | 183.91 ± 0.77
120 K, Crystal | 195.21 ± 0.79
130 K, Crystal | 205.64 ± 0.81
140 K, Crystal | 215.67 ± 0.83
150 K, Crystal | 225.37 ± 0.85
160 K, Crystal | 234.95 ± 0.87
170 K, Crystal | 244.5 ± 0.89
180 K, Crystal | 254.1 ± 0.91
190 K, Crystal | 264.04 ± 0.93
200 K, Crystal | 274.24 ± 0.95
210 K, Crystal | 284.88 ± 0.97
220 K, Crystal | 296.06 ± 0.99
230 K, Crystal | 307.94 ± 1
240 K, Crystal | 321.07 ± 1
250 K, Crystal | 336.07 ± 1.1
260 K, Crystal | 350.98 ± 1.1
270 K, Crystal | 371.61 ± 1.1
290 K, Liquid | 463.91 ± 1.3
300 K, Liquid | 469.05 ± 1.3
310 K, Liquid | 473.89 ± 1.4
320 K, Liquid | 479.3 ± 1.4
330 K, Liquid | 485.18 ± 1.4
340 K, Liquid | 491.82 ± 1.4

— the NIST ThermoML archive (doi:10.1021/je0499364)
